Reference: patent publication US20180008523A1, “ONYCHOMYCOSIS TREATMENT SYSTEM AND METHOD” (DEVICEFARM, INC., priority 2014, published 2018)
Several values for one entry are separate records, joined by “and”; a condition that tells them apart may be missing. Equal values may be shown once.

System: T. rubrum
Assay: Eradication of T. rubrum through a bovine hoof disk (modified Franz-type diffusion cell), colony count after treatment
Assay type: cell-based, Trichophyton rubrum
Conditions: 3 ul PFD on hoof immediately before 45 minutes of plasma treatment; seven days of incubation; 94% for one hoof, 100% (no colonies) for the other two
From the text: Eradication of T. rubrum through a bovine hoof using Perfluorode alin (PFD) facilitator and an SMD plasma-generating device.
The in vitro test model uses a bovine, hoof disk, a surrogate nail model established in the literature. It is used along with a modified Franz-type diffusion cell to isolate the fungal contaminated side of the hoof in an enclosed chamber that ensures the treatment path is through the hoof barrier. An equal amount of T. rubrum is pipetted onto each hoof disc consisting of a 100 ul suspension. Each hoof disk is then placed fungus side down into the modified Franz cell and sealed with an O-ring. Each hoof is then plasma treated for 45 minutes where the average thickness of hoof disks is 0.35 mm. Eight hoof disks were treated as: • a. Control that is placed directly into the wash tube without any treatment • b. Two PFD-only hooves had 3 ul PFD pipetted directly onto the hoof opposite side from the fungus. This was allowed to sit for 45 minutes in the hood before placing in the wash tube. • c. Two Plasma treatment only hooves get just a 45 minute plasma is treatment (i.e., no PFD). • d. Three Plasma treatment with PFD hooves had 3 ul PFD pipetted directly onto the hoof opposite side from the fungus immediately before applying plasma treatment.
After treatment, each hoof went through a fungal collection protocol consisting of washing, dilution, plating and incubation. […]

## FC1(F)C(F)(F)C(F)(F)C2(F)C(F)(F)C(F)(F)C(F)(F)C(F)(F)C2(F)C1(F)F (stereo not shown) [PFD, perfluorodecalin]
  colony reduction compared to control: 94% and 100%
